# Measured values from PubChem BioAssay (NCI).
#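 At the GI50, growth is halved. TGI marks complete inhibition of growth.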
# Columns and labels:
# Assay in all cases: DTP human tumour cell line panel, 384-well format
# T-47D breast = test system: T-47D breast
# LOX IMVI melanoma = test system: LOX IMVI melanoma
# SF-268 CNS = test system: SF-268 CNS
# HCC-2998 colon = test system: HCC-2998 colon
# SK-MEL-2 melanoma = test system: SK-MEL-2 melanoma
# COLO 205 colon = test system: COLO 205 colon
# CAKI-1 renal = test system: CAKI-1 renal
# NCI-H226 lung = test system: NCI-H226 lung
# MDA-MB-435 melanoma = test system: MDA-MB-435 melanoma
# A549 NSCLC = test system: A549 NSCLC
# SNB-19 CNS = test system: SNB-19 CNS
# SK-MEL-28 melanoma = test system: SK-MEL-28 melanoma
# TK-10 renal = test system: TK-10 renal
smiles,measurement,setting,value
CC(C)(C)C[C@H]1N[C@@H](C(=O)NC2CCC(O)CC2)[C@H](c2cccc(Cl)c2F)[C@@]12C(=O)Nc1cc(Cl)ccc12 (stereo partly specified),GI50,T-47D breast,8.29 µM
same,TGI,T-47D breast,20.8 µM
same,GI50,LOX IMVI melanoma,0.366 µM
same,TGI,LOX IMVI melanoma,15.8 µM
same,GI50,SF-268 CNS,13.6 µM
same,TGI,SF-268 CNS,26.5 µM
same,GI50,HCC-2998 colon,9.2 µM
same,TGI,HCC-2998 colon,21.3 µM
same,GI50,SK-MEL-2 melanoma,4.41 µM
same,TGI,SK-MEL-2 melanoma,14.6 µM
same,GI50,COLO 205 colon,11.7 µM
same,TGI,COLO 205 colon,24.1 µM
same,GI50,CAKI-1 renal,0.195 µM
same,TGI,CAKI-1 renal,10.8 µM
same,GI50,NCI-H226 lung,0.226 µM
same,TGI,NCI-H226 lung,1.1 µM
same,GI50,MDA-MB-435 melanoma,10.2 µM
same,TGI,MDA-MB-435 melanoma,23 µM
same,GI50,A549 NSCLC,0.5 µM
same,TGI,A549 NSCLC,11.9 µM
same,GI50,SNB-19 CNS,14.1 µM
same,TGI,SNB-19 CNS,27.2 µM
same,GI50,SK-MEL-28 melanoma,7.87 µM
same,TGI,SK-MEL-28 melanoma,20.5 µM
same,GI50,TK-10 renal,8.04 µM
same,TGI,TK-10 renal,20.8 µM
